Data from patent publication US8906904B2, “Alkoxy pyrazoles as soluble guanylate cyclase activators” (Boehringer Ingelheim International GmbH, priority 2012, dated 2014).
≈ marks a conversion by molar mass, not a printed value.

What was measured:
[1] = human liver microsome (HLM) metabolic stability assay; format: in vitro ADME; conditions: human liver microsomes; % hepatic blood flow calculated from t1/2
Method: The 5 time point, high-throughput human liver microsome (HLM) metabolic stability assay is designed to determine in vitro compound metabolism. Compounds are incubated with HLMs at a concentration of 1 uM, at 37° C., for a total of 60 min. The percent of compound remaining at 5, 15, 30, and 60 min is used to calculate the t½ (min), CLint (mL/min/kg), CLh (mL/min/kg), and % Qh. The assay is based on a 96-well format and can accommodate up to 92 compounds per plate (n=1).
Using the 96-well multi-channel head, the Biomek FX, equipped with a Peltier heating block/shaker, is programmed to accomplish the following steps: • 1. Pipette 175 uL of 1.15 mg/mL microsomes into each of the 96 conical inserts (Analytical Sales and Products, catalog number 96PL05) that fit into the plate of the Peltier heating block/shaker (the incubation plate) • 2. Add 5 uL of compounds from the assay plate to the microsomes and shake the mixture at 600 rpm at 42.1° C. for 10 min (a setting of 42.1° C. on the Peltier is required for the samples to incubate at 37° C.) • 3. After 10 min, prompt the user to add the NADPH plate to the deck and add 20 uL from the NADPH plate to the incubation plate to start the reaction • 4. Add 215 uL of 100%, cold acetonitrile containing an internal standard(s) to a 0 minute, 5 minute, 15 minute, 30 minute, and 60 minute “quench” plate • 5. At 0 min, 5 min, 15 min, 30 min, and 60 min into the incubation, aspirate 12 uL from the incubation mixture and add it to the quench solution to stop the reaction • 6. Add 185 uL HPLC grade water to each well of the 0, 5, 15, 30 and 60 minute quench plates to dilute compounds to the appropriate concentration for the mass spectrometer
After all time points are collected, the quench plates are sealed with 96-well pierceable plate mats or heat sealing foil and centrifuged at 3000 rpm for 15 min to pellet the microsomes.
The plates are analyzed using LC/MS/MS with electron spray ionization (ESI) and the previously determined MRM transitions. The LC method includes the following parameters:
Using an Excel template in Activitybase, the peak areas corresponding to 5, 15, 30 and 60 min are compared to the peak area at 0 min to calculate the percent of remaining compound using the following equation: Percent compound remaining=(AUC at Time t min/AUC at Time 0 min)×100 where t=0, 5, 15, 30 or 60 min.
Time (min) is plotted against the natural logarithm (Ln) of the percent compound remaining to determine the slope. The slope is used to calculate t½ (min) using the equation, t½=0.693/slope.
Preferred compounds have % Qh values of less than 24.

[2] = target: T1, human soluble guanylate cyclase alpha 1 and beta 1 subunits (sGC) (Homo sapiens, UniProt Q02108+Q02153); experiment: sGC cellular activator assay (cGMP, HTRF); format: cell-based; conditions: CHO cells stably expressing human sGC alpha 1/beta 1, preincubated with 40 microM ODQ; cGMP readout; assay run with and without 50% human serum, Table 2 does not say which
T1 construct: expressed in transfected cells; host or cells: Chinese hamster ovary (CHO) cells, stably transfected
T1 sequence (Q02108 1-690): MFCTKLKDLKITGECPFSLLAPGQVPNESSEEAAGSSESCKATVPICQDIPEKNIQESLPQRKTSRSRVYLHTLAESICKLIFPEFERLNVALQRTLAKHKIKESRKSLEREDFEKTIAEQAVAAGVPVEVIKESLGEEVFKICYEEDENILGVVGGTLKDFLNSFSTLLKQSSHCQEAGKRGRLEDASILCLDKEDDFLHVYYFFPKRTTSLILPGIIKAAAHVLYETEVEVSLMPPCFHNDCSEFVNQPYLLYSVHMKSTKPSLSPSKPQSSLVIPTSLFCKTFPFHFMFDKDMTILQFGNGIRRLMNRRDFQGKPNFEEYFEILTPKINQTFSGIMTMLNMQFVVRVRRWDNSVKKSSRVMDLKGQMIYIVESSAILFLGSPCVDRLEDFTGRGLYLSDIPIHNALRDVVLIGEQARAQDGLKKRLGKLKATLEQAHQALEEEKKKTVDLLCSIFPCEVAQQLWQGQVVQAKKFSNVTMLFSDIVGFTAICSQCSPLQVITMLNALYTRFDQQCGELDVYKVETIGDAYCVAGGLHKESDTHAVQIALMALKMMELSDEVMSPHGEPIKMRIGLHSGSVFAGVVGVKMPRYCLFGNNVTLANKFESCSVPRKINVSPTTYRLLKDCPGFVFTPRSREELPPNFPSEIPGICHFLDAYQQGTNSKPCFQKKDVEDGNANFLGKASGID
T1 sequence (Q02153 1-619): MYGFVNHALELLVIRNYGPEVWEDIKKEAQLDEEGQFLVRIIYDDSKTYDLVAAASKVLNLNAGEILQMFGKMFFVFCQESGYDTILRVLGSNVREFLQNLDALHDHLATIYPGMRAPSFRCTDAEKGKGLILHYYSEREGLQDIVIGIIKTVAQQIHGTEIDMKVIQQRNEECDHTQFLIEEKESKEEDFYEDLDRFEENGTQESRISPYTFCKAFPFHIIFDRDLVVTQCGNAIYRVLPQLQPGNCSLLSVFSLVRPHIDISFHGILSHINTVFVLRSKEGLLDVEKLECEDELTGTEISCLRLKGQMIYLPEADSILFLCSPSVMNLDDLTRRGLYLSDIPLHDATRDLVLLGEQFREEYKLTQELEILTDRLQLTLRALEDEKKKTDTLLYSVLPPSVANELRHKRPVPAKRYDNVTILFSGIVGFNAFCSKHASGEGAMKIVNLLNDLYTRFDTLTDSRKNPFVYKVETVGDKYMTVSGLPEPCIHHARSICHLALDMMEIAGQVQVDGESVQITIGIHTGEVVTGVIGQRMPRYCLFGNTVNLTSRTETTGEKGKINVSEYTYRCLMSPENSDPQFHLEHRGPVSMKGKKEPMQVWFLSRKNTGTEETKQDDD
Method: The sGC cellular activator assay is performed in the presence and absence of 50% human serum (HS) using Chinese hamster ovary cells that have been stably transfected to express the human soluble guanylate cyclase alpha 1 and beta 1 subunits (sGC). Cells are preincubated with 40 microM 1H-[1,2,4]oxadiazolo[4,3-a]quinoxalin-1-one (ODQ), an sGC inhibitor, for one h in buffer containing 0.1% bovine serum albumin and 3-isobutyl-1-methylxanthine (IBMX). Concentration response curves are prepared for test compounds in DMSO. An intermediate dilution of the compounds is performed in either buffer containing IBMX or type AB HS containing IBMX. Diluted compounds are added to cells and they are incubated at room temperature for thirty min. cGMP is measured using a CisBio homogeneous time resolved fluorescence kit and the EC50 is calculated for each compound.
Representative compounds of the present invention were tested for activity the above assay. Preferred compounds have an EC50 of <1,000 nM in the above assay and more preferred compounds have an EC50<200 nM.

[3] = Assessment of solubility (McIlvaine buffers, 24 h shake, UPLC-UV); format: physicochemical; conditions: kinetic from dmso stock
Method: Solubility is measured by the following method.
100 uL, 10 mM DMSO stock solution of each compound is prepared in a 96 well plate format. The experiment is done in single determination at 3 pH values (2.2, 4.5 and 6.8). For each pH and one reference, 40 uL of each compound is needed.
McIlvaine pH 2.2: To 2.076 g citric acid monohydrate and 0.043 g Na2HPO4×2H2O add 100 ml deionized water
McIlvaine pH 4.5: To 1.166 g citric acid monohydrate and 1.585 g Na2HPO4×2H2O add 100 ml deionized water
McIlvaine pH 6.8: To 0.476 g citric acid monohydrate and 2.753 g Na2HPO4×2H2O add 100 ml deionized water
With a suitable liquid handling device (Multipette® or a liquid handler) 390 uL of each buffer solution and 10 uL of compound is added to each well of a 96 deep well plate. The plates are covered firmly and shaken for 24 h on an over head shaker (at 54 RPM) at room temperature. The DMSO content in the final buffer is 2.5% v/v.
After 24 h the plates are centrifuged to remove droplets on the lid before opening (for ˜5 min at 2500 RPM).
The filtration is done under vacuum with Millipore 96 well filter plate. Filtrate is collected in a deep well plate and transferred to a suitable plate for UPLC analysis.
The reference plate is prepared by adding 10 uL of compound to 390 uL of 50:50 acetonitrile/water in a 96 deep well plate and transferred to a suitable plate for UPLC analysis. Wells are checked visually for precipitation, any presence noted under comments in reported results.
The samples are measured with UPLC-UV using the chromatographic method described below.
Waters Empower®2 software is used for generating Sample Sets (according to the plate layout), Sample Set Methods and Instrument Methods.
One Sample Set comprises the methods for three 96 well plates (one reference plate and two sample plates, and includes one Sample Set Method and one Instrument Method).
3. Data Processing and Analysis
The UV chromatograms collected at 254 nm are integrated and processed.
It is assumed that the compound is completely dissolved in the reference solution (50:50 acetonitrile/water)

Structure (SMILES) | HLM (% Qh) [1] | EC50 [2] | solubility at 24 h ([3]; pH 2.2, aqueous buffer) | solubility at 24 h ([3]; pH 4.5, aqueous buffer) | solubility at 24 h ([3]; pH 6.8, aqueous buffer)
COc1c(C(=O)O)cnn1-c1cccc(-c2cccc(C)c2OCc2ccc3c(c2)CN(C2CCOCC2)C3)n1 [Compound 59] | <24 % Qh | 31 nM | – | – | –
CCOc1c(C(=O)O)cnn1-c1cccc(-c2cccc(C)c2OCc2ccc3c(c2)CCNC3)n1 [Compound 60] | <24 % Qh | – | 117 µg/mL (≈ 241 µM) | 96 µg/mL (≈ 198 µM) | 100 µg/mL (≈ 206 µM)
Cc1cccc(-c2cccc(-n3ncc(C(=O)O)c3OC(C)C)n2)c1OCc1ccc2c(c1C)CCN([C@@H]1CCCOC1)C2 [Compound 116] | <24 % Qh | 28 nM | – | – | –
COc1c(C(=O)O)cnn1-c1cccc(-c2cccc(C)c2OCc2cc(C)c3c(c2C)CN(S(=O)(=O)c2ccc(C)cc2)C3)n1 [Compound 138] | 68 % Qh | 54 nM | – | – | –
CCOc1c(C(=O)O)cnn1-c1cccc(-c2cccc(C)c2OCc2ccc3c(c2C)CCN(C(CO)CO)C3)n1 [Compound 156] | <24 % Qh | 720 nM | – | – | –
COc1c(C(=O)O)cnn1-c1cccc(-c2cccc(C)c2OCc2ccc3c(c2)CCN(C[C@H]2CCOC2)C3)n1 [Compound 192] | <24 % Qh | 10 nM | – | – | –
CCOc1c(C(=O)O)cnn1-c1cccc(-c2cccc(C)c2OCc2ccc3c(c2)CN(C2CCOCC2)C3)n1 [Compound 216] | <24 % Qh | 110 nM | – | – | –
COc1c(C(=O)O)cnn1-c1cccc(-c2cccc(C)c2OCc2cc(C)c3c(c2C)CN(CC2COCCO2)C3)n1 (centres unmarked) [Compound 246] | <24 % Qh | 6.5 nM | – | – | –
COc1c(C(=O)O)cnn1-c1cccc(-c2cccc(C)c2OCc2cc(C)c3c(c2)CN(C2CCOCC2)C3)n1 [Compound 255] | <24 % Qh | 9.5 nM | – | – | –
COc1c(C(=O)O)cnn1-c1cccc(-c2cccc(C)c2OCc2ccc3c(c2C)CN(C2CCOCC2)C3)n1 [Compound 256] | <24 % Qh | 14 nM | – | – | –
COc1c(C(=O)O)cnn1-c1cccc(-c2cccc(C)c2OCc2ccc3c(c2C)CN(C2COC2)C3)n1 [Compound 257] | <24 % Qh | 14 nM | – | – | –
COc1c(C(=O)O)cnn1-c1cccc(-c2cccc(C)c2OCc2cc(C)c3c(c2)CN(C2COC2)C3)n1 [Compound 258] | <24 % Qh | 15 nM | – | – | –
